Measured values as given in patent US20110124715A1, “Antiviral Oligonucleotides Having a Conserved G4 Core Sequence” (priority 1992, published 2011).
Several values for one entry are separate records, joined by “and”; a condition that tells them apart may be missing. Equal entries are not always repeated. Strand notation (5' to 3'): a small letter for the sugar, then the base; units joined by * are phosphorothioate-linked, units joined directly phosphodiester-linked; [ ] holds rarer units or linkages, { } end groups; capitals alone tell only the bases. [I] = hypoxanthine (inosine); d = 2'-deoxy (DNA)

Test system: HIV-1
Test: not given
Settings: Table 16; acute HIV assay; listed as ToToGoGoGoGoToT

For TT GGGG TT [ISIS 5671], the IC50 was “inactive”.

Biological target: T1, human type II phospholipase A2 (Homo sapiens, UniProt P14555)
T1 sequence (P14555 21-144): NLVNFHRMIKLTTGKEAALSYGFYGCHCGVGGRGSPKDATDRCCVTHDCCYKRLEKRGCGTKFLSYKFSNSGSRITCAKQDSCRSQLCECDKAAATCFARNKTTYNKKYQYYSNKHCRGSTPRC
Test: Phospholipase A2 assay, 3H-oleic acid labelled E. coli substrate
Format: biochemical
Settings: 1 μM

In the case of “GTGGAGGAGAGCAGTAGAAGG (dG*dT*dG*dG*dA*dG*dG*dA*dG*dA*dG*dC*dA*dG*dT*dA*dG*dA*dA*dG*dG) [ISIS 3477]”, the “inhibition of enzyme activity” value is reported as 54.7%.

With “GGG T GGG T ATA G AAG G GCT CC (GGGTGGGTATAGAAGGGCTCC; chemistry not given here) [ISIS 3196]” the “inhibition of enzyme activity” value was “completely inhibited”.
In the case of “GTAGGGAGGGAGGGTATGAGA (dG*dT*dA*dG*dG*dG*dA*dG*dG*dG*dA*dG*dG*dG*dT*dA*dT*dG*dA*dG*dA) [ISIS 3470]”, the “inhibition of enzyme activity” value is reported as “completely inhibited”.

Same assay, conditions: Table 4; 1 μM

Going from “3665 (dG*dG*dA*dC*dT*dG*dG*dC*dC*dT*dA*dG*dC*dT*dC*dC*dT*dC*dT*dG*dC) [compound 3665]” to “3631 (dA*dG*dG*dT*dC*dG*dA*dG*dG*dA*dG*dT*dG*dG*dT*dC*dT*dG*dA*dG*dC) [compound 3631]”, the “% Inhibition (1 μM)” value falls from 45.8% to 20.7%.

First: 3694 (dA*dC*dA*dG*dC*dA*dG*dC*dT*dG*dT*dG*dA*dG*dG*dA*dG*dA*dC*dA*dC) [compound 3694]
Second: 3472 (dT*dG*dG*dG*dT*dG*dA*dG*dG*dG*dA*dT*dG*dC*dT*dT*dT*dC*dT*dG*dC) [compound 3472]
The “% Inhibition (1 μM)” value of the first is lower: 28.2% for the first, 69.0% for the second.

First: 3468 (dG*dG*dG*dA*dC*dT*dC*dA*dG*dC*dA*dA*dC*dG*dA*dG*dG*dG*dG*dT*dG) [compound 3468]
Second: 3629 (dC*dA*dC*dC*dC*dC*dT*dC*dG*dT*dT*dG*dC*dT*dG*dA*dG*dT*dC*dC*dC) [compound 3629]
The “% Inhibition (1 μM)” value of the first is higher: 97.5% for the first, 20.5% for the second.

Going from “3185 (antisense CAAAGATCATGATCACTGCCA; phosphorothioate, chemistry not fully specified) [compound 3185]” to “3480 (dT*dT*dG*dC*dT*dT*dT*dA*dT*dT*dC*dA*dG*dA*dA*dG*dA*dG*dA*dC*dC) [compound 3480]”, the “% Inhibition (1 μM)” value rises from 22.7% to 24.5%.

Going from “3697 (dA*dC*dT*dC*dT*dT*dA*dC*dC*dA*dC*dA*dG*dG*dT*dG*dA*dT*dT*dC*dT) [compound 3697]” to “3481 (dT*dT*dT*dT*dT*dG*dA*dT*dT*dT*dG*dC*dT*dA*dA*dT*dT*dG*dC*dT*dT) [compound 3481]”, the “% Inhibition (1 μM)” value falls from 39% to 2.2%.

Compared with “3633 (dG*dT*dA*dG*dG*dG*dA*dT*dG*dG*dG*dA*dG*dT*dG*dA*dA*dG*dG*dA*dG) [compound 3633]”, “3182 (antisense dC*dA*dG*dA*dG*dG*dA*dC*dT*dC*dC*dA*dG*dA*dG*dT*dT*dG*dT*dA*dT) [compound 3182]” is lower in “% Inhibition (1 μM)” value: 58.5% for the first, 30.2% for the second.

First: 4133 (dA*dG*dT*dG*dC*dA*dC*dG*dT*dT*dG*dA*dG*dT*dA*dT*dG*dT*dG*dA*dG) [compound 4133]
Second: 3712 (dA*dG*dG*dA*dG*dT*dC*dC*dT*dG*dT*dT*dT*dT*dG*dA*dA*dA*dT*dC*dA) [compound 3712]
The “% Inhibition (1 μM)” value of the first is higher: 37.3% for the first, 31.8% for the second.

Compared with “3632 (dC*dC*dA*dG*dG*dA*dG*dA*dG*dG*dT*dC*dG*dG*dT*dA*dA*dG*dG*dC*dG) [compound 3632]”, “3181 (antisense dT*dC*dT*dG*dC*dC*dC*dC*dG*dG*dC*dC*dG*dT*dC*dG*dC*dT*dC*dC*dC) [compound 3181]” is higher in “% Inhibition (1 μM)” value: 29.2% for the first, 42.7% for the second.

Going from “3475 (dT*dC*dT*dC*dA*dT*dT*dC*dT*dG*dG*dG*dT*dG*dG*dG*dT*dA*dT*dA*dG) [compound 3475]” to “3471 (dA*dA*dG*dG*dA*dA*dC*dT*dT*dG*dG*dT*dT*dA*dG*dG*dG*dT*dA*dG*dG) [compound 3471]”, the “% Inhibition (1 μM)” value falls from 67.0% to 34.5%.

First: 3663 (dC*dT*dC*dT*dG*dC*dT*dG*dG*dG*dT*dG*dG*dT*dC*dT*dC*dA*dA*dC*dT) [compound 3663]
Second: 3474 (dA*dT*dA*dG*dA*dA*dG*dG*dG*dC*dT*dC*dC*dT*dG*dC*dC*dT*dG*dG*dC) [compound 3474]
The “% Inhibition (1 μM)” value of the first is higher: 16.3% for the first, 13.3% for the second.

Going from “3473 (dC*dT*dG*dC*dC*dT*dG*dG*dC*dC*dT*dC*dT*dA*dG*dG*dA*dT*dG*dG*dG) [compound 3473]” to “3184 (antisense dT*dT*dC*dA*dT*dG*dG*dT*dA*dA*dG*dA*dG*dT*dT*dC*dT*dT*dG*dG*dG) [compound 3184]”, the “% Inhibition (1 μM)” value falls from 25.9% to 25.1%.

First: 3628 (dG*dG*dA*dG*dC*dC*dC*dT*dT*dC*dT*dA*dT*dA*dC*dC*dC*dA*dC*dC*dC) [compound 3628]
Second: 3478 (dT*dG*dG*dT*dT*dA*dA*dG*dC*dA*dC*dG*dG*dA*dG*dT*dT*dG*dA*dG*dG) [compound 3478]
The “% Inhibition (1 μM)” value of the first is lower: 13.6% for the first, 26.4% for the second.

Compared with “3630 (dT*dC*dT*dC*dA*dT*dA*dC*dC*dC*dT*dC*dC*dC*dT*dC*dC*dC*dT*dA*dC) [compound 3630]”, “3193 (dC*dC*dT*dG*dC*dA*dG*dT*dA*dG*dG*dC*dC*dT*dG*dG*dA*dA*dG*dG*dA) [compound 3193]” is higher in “% Inhibition (1 μM)” value: 17.6% for the first, 22.6% for the second.

First: 3688 (dT*dG*dG*dC*dC*dT*dC*dA*dC*dC*dG*dA*dT*dC*dC*dG*dT*dT*dG*dC*dA) [compound 3688]
Second: 3192 (dG*dG*dA*dA*dG*dG*dT*dT*dT*dC*dC*dA*dG*dG*dG*dA*dA*dG*dA*dG*dG) [compound 3192]
The “% Inhibition (1 μM)” value of the first is higher: 43.1% for the first, 28.1% for the second.

Going from “3479 (dC*dC*dG*dG*dA*dG*dT*dA*dC*dA*dG*dC*dT*dT*dC*dT*dT*dT*dG*dG*dT) [compound 3479]” to “3476 (dG*dC*dT*dG*dG*dA*dA*dA*dT*dC*dT*dG*dC*dT*dG*dG*dA*dT*dG*dT*dC) [compound 3476]”, the “% Inhibition (1 μM)” value rises from 42.3% to 43.4%.

Going from “3669 (dG*dG*dT*dG*dA*dC*dA*dA*dA*dT*dG*dC*dA*dG*dA*dT*dG*dG*dA*dC*dT) [compound 3669]” to “3679 (dA*dG*dT*dA*dG*dG*dC*dC*dT*dG*dG*dA*dA*dG*dG*dA*dA*dA*dT*dT*dT) [compound 3679]”, the “% Inhibition (1 μM)” value falls from 34.7% to 30.3%.

Compared with “4149 (dC*dT*dA*dC*dG*dG*dC*dA*dG*dA*dG*dA*dC*dG*dA*dG*dA*dT*dA*dG*dC) [compound 4149]”, “3676 (dA*dG*dC*dT*dC*dT*dT*dA*dC*dC*dA*dA*dA*dG*dA*dT*dC*dA*dT*dG*dA) [compound 3676]” is higher in “% Inhibition (1 μM)” value: 20.2% for the first, 24.5% for the second.

Compared with “3470 (dG*dT*dA*dG*dG*dG*dA*dG*dG*dG*dA*dG*dG*dG*dT*dA*dT*dG*dA*dG*dA) [compound 3470]”, “3196 (dG*dG*dG*dT*dG*dG*dG*dT*dA*dT*dA*dG*dA*dA*dG*dG*dG*dC*dT*dC*dC) [compound 3196]” is higher in “% Inhibition (1 μM)” value: 88.9% for the first, 98.5% for the second.

First: 3659 (dT*dG*dC*dT*dC*dC*dT*dC*dC*dT*dT*dG*dG*dT*dG*dG*dC*dT*dC*dT*dC) [compound 3659]
Second: 3477 (dG*dT*dG*dG*dA*dG*dG*dA*dG*dA*dG*dC*dA*dG*dT*dA*dG*dA*dA*dG*dG) [compound 3477]
The “% Inhibition (1 μM)” value of the first is lower: 38.2% for the first, 54.7% for the second.

“3671 (dT*dA*dG*dG*dA*dG*dG*dG*dT*dC*dT*dT*dC*dA*dT*dG*dG*dT*dA*dA*dG) [compound 3671]” was tested, and the “% Inhibition (1 μM)” value was 49.3%.

Same assay, conditions: Table 5; 1 μM; two separate experiments

Going from “4957 (dG*dG*dG*dT*dG*dG*dA*dT*dA*dT*dA*dG) [compound 4957]” to “4947 (dA*dG*dG*dT*dG*dG*dG*dT*dA*dT*dA*dG) [compound 4947]”, the “% Inhibition (1 μM)” value falls from 81.9% to 22.7%.

First: 4956 (dG*dG*dG*dC*dG*dG*dG*dT*dA*dT*dA*dG) [compound 4956]
Second: 4962 (dG*dG*dG*dT*dG*dG*dG*dT*dA*dT) [compound 4962]
The “% Inhibition (1 μM)” value of the first is higher: 92.0% for the first, 36.3% for the second.

Compared with “4955 (dG*dG*dG*dA*dG*dG*dG*dT*dA*dT*dA*dG) [compound 4955]”, “4946 (dG*dG*dG*dT*dG*dG*dG*dA*dA*dT*dA*dG) [compound 4946]” is lower in “% Inhibition (1 μM)” value: 97.5% for the first, 73.2% for the second.

In the case of “4672 (dG*dG*dG*dT*dG*dG*dG*dT*dA*dT*dA*dG) [compound 4672]”, the “% Inhibition (1 μM)” value is reported as 73.9% and 94.6%.
In the case of “3196 (dG*dG*dG*dT*dG*dG*dG*dT*dA*dT*dA*dG*dA*dA*dG*dG*dG*dC*dT*dC*dC) [compound 3196]”, the “% Inhibition (1 μM)” value is reported as 100% and 76.2%.

Same assay, conditions: b86; fold higher

“3628 (dG*dG*dA*dG*dC*dC*dC*dT*dT*dC*dT*dA*dT*dA*dC*dC*dC*dA*dC*dC*dC) [compound 3628]” was tested, and the “I.C.50 relative to ISIS 3196” value was “approximately 10 fold”.
For “AGGTCGAGGAGTGGTCTGAGC (dA*dG*dG*dT*dC*dG*dA*dG*dG*dA*dG*dT*dG*dG*dT*dC*dT*dG*dA*dG*dC) [ISIS 3631]”, the “I.C.50 relative to ISIS 3196” value was “approximately 10 fold”.

Same assay, conditions: boiling water for 15 minutes prior to addition to the assay

Work on “GGG T GGG T ATA G AAG G GCT CC (GGGTGGGTATAGAAGGGCTCC; chemistry not given here) [ISIS 3196]” yielded an inhibition of 21%.

Same assay, conditions: concentrations as high as 10 μM

With “ISIS 1573: phosphorothioate deoxyoligonucleotide, SEQ ID NO: 120 (DNA dG*dA*dG*dG*dC*dT*dG*dA*dG*dG*dT*dG*dG*dG*dA*dG*dG*dA)” the “inhibition of phospholipase A2” value was “did not significantly inhibit”.

Same assay, conditions: increasing amounts of E. coli substrate; ISIS 3481 at 0.2 μM and 2 μM

For “TTTTTGATTTGCTAATTGCTT (dT*dT*dT*dT*dT*dG*dA*dT*dT*dT*dG*dC*dT*dA*dA*dT*dT*dG*dC*dT*dT) [ISIS 3481]”, the “effect on substrate kinetics” value was “did not modify the substrate kinetics”.
In the case of “GGG T GGG T ATA G AAG G GCT CC (GGGTGGGTATAGAAGGGCTCC; chemistry not given here) [ISIS 3196]”, the “effect on substrate kinetics” value is reported as “apparent noncompetitive inhibitor”.

Same assay, conditions: native, not boiled

In the case of “GGG T GGG T ATA G AAG G GCT CC (GGGTGGGTATAGAAGGGCTCC; chemistry not given here) [ISIS 3196]”, the inhibition is reported as 94%.

Test system: HSV-1 (KOS)
Test: HSV-1 infection ELISA assay
Format: cell-based, herpes simplex virus
Settings: Table 12; inosine-substituted oligonucleotides against HSV

First: 4925 (GTTGGAGACCGGNGTTGGNG; DNA, [I] at 13, 19, backbone not given here) [compound 4925]
Second: 5296 (GTTGGAGACCGGGGTTGGNG; DNA, [I] at 19, backbone not given here) [compound 5296]
The EC50 of the first is 2-fold higher: 1600 nM for the first, 800 nM for the second.

Same assay, conditions: b150; duplicate experiments

For “GCCGAGGTCCATGTCGTACGC (GCCGAGGTCCATGTCGTACGC; chemistry not given here) [ISIS 1082, negative control oligonucleotide complementary to HSV UL13 translation initiation codon; has no runs of G, reference compound]”, the EC50 was 2500 nM and 1800 nM.

Same assay, conditions: b190

GGGGGGTG [ISIS 5684] was tested, and the ED50 was “approximately 0.6 μM”.
